Experimental data as given in patent publication US20170312260A1 (LAUNX BIOMEDICAL CO., LTD., priority 2014, published 2017).

System: cancers cell lines
Test: Inhibition test on all kinds of cancer cell lines (overall statement)
Assay type: cell-based
Settings: several / various cancer cell lines, Table 18, FIG. 1
Description: The cell numbers were counted and reseed as 2×10^6 in cell culture plate/flask. Then, the culture medium were added to a volume of 10 ml, and the cells were cultured for 2-3 days. Then, the cells were suspended for loading into 96-well plates. The number of cells was 3000 and the volume of the culture medium was 100 μl each well.
Removing the original culture medium from 96-well plate. Then add 100 μl of commercially drug at a concentration of 10 μM per well. After 72 hours, add the diluted WST-1 reagent to the well with 100 μl/well, and the diluted WST-1 reagent was acquired from the dilution of 9:1 medium and WST-1 stock reagent. Finally, the total volume of each well was 200 μl/well. Culture the 96-well plate at 37° C. for 30 to 90 minutes. Detecting and calculate the survival rate of each cancer cells with an ELISA reader at OD450 nm.
As a result in the experiments of the present invention.

Structure (SMILES): Fc1ccc([C@@H]2CCNC[C@H]2COc2ccc3c(c2)OCO3)cc1 [Paroxetine]
- inhibitory effect on cancer cell lines (in words): significant inhibitory effect
